Patent US11993640B2, “Treating inflammatory lung disease” (United States Government as represented by the Department …, priority 2019, dated 2024)
Non-standard residues stand in square brackets, D forms with d. Residues, ends and D or L forms follow the SMILES beside them. *: point of attachment. Phe(F5) = N[C@@H](Cc1c(F)c(F)c(F)c(F)c1F)C(=O)O; hArg = N=C(N)NCCCC[C@H](N)C(=O)O; 12Ado = NCCCCCCCCCCCC(=O)O; Nle = CCCC[C@H](N)C(=O)O; Orn = NCCC[C@H](N)C(=O)O; Abu = CC[C@H](N)C(=O)O; PhAc = O=C(Cc1ccccc1)*

Test system: PC3 xenograft
Assay: Xenograft tumor growth in nude mice, prostate cancer PC3
Assay type: in vivo
Conditions: Panel N, 8 weeks, 5 μg/day s.c.
Protocol: The peptides' activity was compared with GHRH antagonist MIA-602. All statistical analyzses were performed from comparing GHRA antagonists to non-treated tumor (control).
Peptides and chemicals. GHRH antagonists MIA-602 and AVR-GHRH antagonists (see Table 2 above) were synthesized by solid phase methods and purified by HPLC. The peptides were dissolved in DMSO and further diluted in 10% 1, 2-propanediol. The final concentration of peptides was 50 µg/ml in 10% 1, 2-propanediol containing 0.1% of DMSO.
Cell culture. Human cancer cell lines including pancreatic (PANC-1 and CFPAC-1), lung (HCC827 and H460), stomach (NCI-N87), prostate (PC3), brest (MX-1 and HCC-1806), colorectal (HT-29), and ovarian (SK-OV-3 and OVCAR-3) were obtained from the American Type Culture Collection (ATCC) and cultured at 37° C. in a humidified 95% air/5% CO2 atmosphere in the medium recommended by ATCC.
Xenograft models of human cancers in nude mice. Female athymic (NCr nu/nu) nude mice, 5-to 6-weeks-old, obtained from the Envigo labs (Tampa, FL), were housed in laminar airflow cabinets under pathogen-free conditions with a 12-h light/12-h dark schedule, and were fed autoclaved standard chow and water. To generate mice with xenografted tumors, tumor xenografts were initiated by subcutaneous (s.c.) injection of […] human cancer cells into female nude mice. After about 4 weeks the resulting tumors were dissected and collected after removing necrosis tissues. The tumors were then cut into particles with size of ˜3 mm3 and transplanted s.c. by trocar needle into experimental animals. When tumors grew to the size of 50-60 mm3 (by volume), mice were randomized into groups and treated daily for 4-8 weeks by subcutaneous administration of 5 μg of GHRH antagonists MIA-602 or AVR-compounds (2-10 μg as indicated), or vehicle solutions (0.1% DMSO in 10% 1, 2-propanediol) respectively. Tumor sizes were measured weekly.
Statistical analysis. One-way ANOVA followed by Bonferroni comparison were performed. Data are expressed as Mean±SEM. […]

CCCC[C@H](NC(=O)[C@@H](NC(=O)[C@H](CC(=O)O)NC(=O)[C@H](CCC(N)=O)NC(=O)[C@H](CC(C)C)NC(=O)[C@H](CC(C)C)NC(=O)[C@H](CCCN)NC(=O)[C@H](Cc1c[nH]cn1)NC(=O)[C@H](C)NC(=O)[C@H](CO)NC(=O)[C@H](CC(C)C)NC(=O)[C@H](CCC(N)=O)NC(=O)[C@H](CC)NC(=O)[C@H](CC(C)C)NC(=O)[C@@H](NC(=O)[C@H](CCCN)NC(=O)[C@H](Cc1c[nH]cn1)NC(=O)[C@H](Cc1ccc(OC)cc1)NC(=O)[C@H](CCCCNC(=N)N)NC(=O)[C@H](C)NC(=O)[C@@H](NC(=O)[C@H](Cc1c(F)c(F)c(F)c(F)c1F)NC(=O)[C@@H](NC(=O)[C@H](C)NC(=O)[C@H](CC(=O)O)NC(=O)[C@@H](CCCNC(=N)N)NC(=O)[C@H](Cc1ccc(O)cc1)NC(=O)CCCCCCCCCCCNC(=O)Cc1ccccc1)[C@@H](C)CC)[C@@H](C)O)C(C)C)[C@@H](C)CC)C(=O)N[C@H](CCCNC(=N)N)C(=O)N[C@@H](CCCCNC(=N)N)C(N)=O [MIA-602, PhAC-Ada, Tyr D-Arg, Asp, Ala, Ile, 5FPhe, Thr, Ala, Har, Tyr(Me), His, Orn, Val, Leu, Abu, Gin, Leu, Ser, Ala, His, Orn, Leu, Leu, Gin, Asp, Ile, Nle, D-Arg, Har NH2, reference compound] ({PhAc-12Ado}-Y[dR]DAI[Phe(F5)]TA[hArg]Y(Me)H[Orn]VL[Abu]QLSAH[Orn]LLQDI[Nle][dR][hArg]-NH2)
Tumor Growth %: 450.9%
